Measurements reported in patent publication US20240382483A1, “HETEROCYCLIC EGFR INHIBITORS FOR USE IN THE TREATMENT OF CANCER” (Blueprint Medicines Corporation, priority 2021, published 2024).

Assays:
EGFR (L858R T790M C797S) = molecular target: T1, EGFR (L858R T790M C797S) (Homo sapiens, UniProt P00533, C797S/L858R/T790M); assay: Biochemical EGFR inhibition assay (Caliper mobility shift), EGFR LRTMCS; conditions: LRTMCS (PH) IC50 (nM) @ 1 mM ATP (Num), EGFR LRTMCS mutant
T1 construct: purchased SignalChem E10-122VG
T1 sequence (P00533 25-1210 T790M/C797S/L858R): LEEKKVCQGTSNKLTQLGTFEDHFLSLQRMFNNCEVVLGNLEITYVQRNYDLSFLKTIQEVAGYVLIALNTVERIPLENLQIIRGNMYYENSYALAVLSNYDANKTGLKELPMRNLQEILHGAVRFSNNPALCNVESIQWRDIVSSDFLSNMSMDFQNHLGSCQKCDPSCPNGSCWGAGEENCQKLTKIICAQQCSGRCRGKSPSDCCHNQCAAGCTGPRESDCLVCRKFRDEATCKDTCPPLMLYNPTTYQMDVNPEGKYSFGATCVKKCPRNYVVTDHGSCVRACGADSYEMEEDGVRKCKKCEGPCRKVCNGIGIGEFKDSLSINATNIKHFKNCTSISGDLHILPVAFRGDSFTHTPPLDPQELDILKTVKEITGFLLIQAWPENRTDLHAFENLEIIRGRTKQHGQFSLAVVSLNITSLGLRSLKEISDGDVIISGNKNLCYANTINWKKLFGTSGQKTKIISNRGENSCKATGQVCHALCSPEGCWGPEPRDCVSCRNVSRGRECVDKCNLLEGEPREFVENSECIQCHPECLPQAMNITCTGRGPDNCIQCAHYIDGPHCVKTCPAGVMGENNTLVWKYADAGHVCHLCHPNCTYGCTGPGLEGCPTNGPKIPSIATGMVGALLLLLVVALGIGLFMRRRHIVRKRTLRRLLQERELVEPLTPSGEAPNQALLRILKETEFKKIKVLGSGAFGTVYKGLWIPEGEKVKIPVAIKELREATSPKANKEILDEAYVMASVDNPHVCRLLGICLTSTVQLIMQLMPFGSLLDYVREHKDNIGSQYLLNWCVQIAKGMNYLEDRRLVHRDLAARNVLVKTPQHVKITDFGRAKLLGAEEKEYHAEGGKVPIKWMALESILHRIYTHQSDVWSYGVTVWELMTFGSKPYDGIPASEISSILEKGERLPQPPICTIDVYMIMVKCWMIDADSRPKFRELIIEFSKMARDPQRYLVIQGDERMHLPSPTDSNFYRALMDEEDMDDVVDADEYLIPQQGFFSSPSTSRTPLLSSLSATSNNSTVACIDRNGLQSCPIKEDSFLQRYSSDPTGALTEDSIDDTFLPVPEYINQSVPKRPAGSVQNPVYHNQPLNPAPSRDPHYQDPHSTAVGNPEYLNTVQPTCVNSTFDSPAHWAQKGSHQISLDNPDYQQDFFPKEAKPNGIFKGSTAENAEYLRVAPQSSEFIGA
In short: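 Caliper mobility shift read-out: product and substrate peptides separated by electrophoresis and quantified. Reactions at 25° C. taken to 10–20% peptide phosphorylation, quenched with 35 mM EDTA. Apparent IC50 from percent activity vs log [compound].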

[1] = molecular target: T2, intracellular phosphorylation of EGFR in NCI-H1975 cell line that harbors the EGFR L858R T790M mutations (Homo sapiens, UniProt P00533, L858R/T790M); assay: NCI-H1975 pEGFR AlphaLISA assay; assay type: cell-based; conditions: NCI-H1975 cells (EGFR L858R T790M), p-EGFR (Tyr1068), 4-5 hours incubation; read-out: Ext pEGFR H1975 GMean IC50 (nM) Protocol: @Pharmaron AlphaLISA (Num)
T2 construct: NCI-H1975 cell line that harbors the EGFR L858R T790M mutations (ATCC, CRL-5908); host or cells: NCI-H1975
T2 sequence (P00533 25-1210 T790M/L858R): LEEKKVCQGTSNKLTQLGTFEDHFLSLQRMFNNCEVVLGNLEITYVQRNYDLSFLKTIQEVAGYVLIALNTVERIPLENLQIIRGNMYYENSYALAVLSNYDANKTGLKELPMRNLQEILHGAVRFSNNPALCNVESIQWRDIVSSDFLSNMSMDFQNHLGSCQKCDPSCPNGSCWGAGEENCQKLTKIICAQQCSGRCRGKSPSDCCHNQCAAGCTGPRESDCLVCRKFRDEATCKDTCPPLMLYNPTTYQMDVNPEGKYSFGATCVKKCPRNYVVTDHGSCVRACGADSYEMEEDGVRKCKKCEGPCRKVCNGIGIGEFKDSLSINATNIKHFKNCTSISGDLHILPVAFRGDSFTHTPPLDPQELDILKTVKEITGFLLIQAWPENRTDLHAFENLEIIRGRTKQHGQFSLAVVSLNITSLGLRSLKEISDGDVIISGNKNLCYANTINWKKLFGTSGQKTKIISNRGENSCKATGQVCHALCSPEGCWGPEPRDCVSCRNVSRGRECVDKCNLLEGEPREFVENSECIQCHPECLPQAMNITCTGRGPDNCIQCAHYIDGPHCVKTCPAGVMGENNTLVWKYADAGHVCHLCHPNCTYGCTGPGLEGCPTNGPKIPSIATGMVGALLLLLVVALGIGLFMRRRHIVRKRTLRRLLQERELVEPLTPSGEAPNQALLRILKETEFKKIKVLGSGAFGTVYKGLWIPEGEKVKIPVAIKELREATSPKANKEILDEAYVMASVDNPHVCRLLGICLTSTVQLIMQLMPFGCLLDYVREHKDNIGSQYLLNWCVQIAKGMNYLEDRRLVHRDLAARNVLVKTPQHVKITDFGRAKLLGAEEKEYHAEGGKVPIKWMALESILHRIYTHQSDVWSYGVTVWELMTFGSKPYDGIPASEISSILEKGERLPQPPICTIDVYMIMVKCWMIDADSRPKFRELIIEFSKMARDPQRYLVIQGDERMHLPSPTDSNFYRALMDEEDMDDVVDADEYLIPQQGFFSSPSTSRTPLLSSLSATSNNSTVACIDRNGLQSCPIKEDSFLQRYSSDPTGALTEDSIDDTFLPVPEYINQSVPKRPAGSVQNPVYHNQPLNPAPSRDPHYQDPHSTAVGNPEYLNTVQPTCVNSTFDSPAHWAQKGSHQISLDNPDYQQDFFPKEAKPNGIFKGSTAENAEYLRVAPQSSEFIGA
Procedure: On the next day, the test compounds and DMSO control were added into H1975 cell plate followed by incubation at 37C/5% CO2 for 4-5 hours. […] Then 5 μL of a donor bead mix was added to each well followed by overnight incubation at room temperature in dark. On the next day, the plate was read at a compatible plate reader to obtain pEGFR signal. Percent of pEGFR inhibition was plotted against log concentration of compounds to generate IC50 values.

Structure (SMILES)	IC50 (EGFR (L858R T790M C797S)) [nM]	IC50 [1] [nM]
C[C@H]1CCN1c1ncc(CC2(C)COC2)c2cc(Nc3ccnc(N4CC[C@@H](O)[C@@](C)(F)C4)n3)ncc12 (single isomer, unassigned) [Example 156, (3S,4R)-3-fluoro-3-methyl-1-(4-((8-((S)-2-methylazetidin-1-yl)-5-((3-methyloxetan-3-yl)methyl)-2,7-naphthyridin-3-yl)amino)pyrimidin-2-yl)piperidin-4-ol or (3S,4R)-3-fluoro-3-methyl-1-(4-((8-((R)-2-methylazetidin-1-yl)-5-((3-methyloxetan-3-yl)methyl)-2,7-naphthyridin-3-yl)amino)pyrimidin-2-yl)piperidin-4-ol]	20 to 30	> 50
COCC1(F)CN(c2ncc(C(C)C)c3cc(Nc4ccnc(N5CC[C@@H](O)[C@@](C)(F)C5)n4)ncc23)C1 [Example 68, (3S,4R)-3-fluoro-1-(4-((8-(3-fluoro-3-(methoxymethyl)azetidin-1-yl)-5-isopropyl-2,7-naphthyridin-3-yl)amino)pyrimidin-2-yl)-3-methylpiperidin-4-ol]	20 to 30	30 to 50
CCc1cnc(N2CC[C@@H]2C)c2cnc(Nc3ccnc(N4CC[C@@H](O)[C@@](C)(F)C4)n3)cc12 (single isomer, unassigned) [Example 181, (3S,4R)-1-(4-((5-ethyl-8-((S)-2-methylazetidin-1-yl)-2,7-naphthyridin-3-yl)amino)pyrimidin-2-yl)-3-fluoro-3-methylpiperidin-4-ol or (3S,4R)-1-(4-((5-ethyl-8-((R)-2-methylazetidin-1-yl)-2,7-naphthyridin-3-yl)amino)pyrimidin-2-yl)-3-fluoro-3-methylpiperidin-4-ol]	15 to 20	30 to 50
CC(C)c1ncc(N2CCC23CN(C)C3)c2cnc(Nc3ccnc(N4CC[C@@H](O)[C@@](C)(F)C4)n3)cc12 [Example 195, (3S,4R)-3-fluoro-1-(4-((5-isopropyl-8-(6-methyl-1,6-diazaspiro[3.3]heptan-1-yl)-2,6-naphthyridin-3-yl)amino)pyrimidin-2-yl)-3-methylpiperidin-4-ol]	20 to 30	30 to 50
CO[C@H]1CN(c2ncc(C(C)C)c3cc(Nc4ccnc(N5CC[C@@H](O)[C@@](C)(F)C5)n4)ncc23)[C@@H]1C [Example 107, (3S,4R)-3-fluoro-1-(4-((5-isopropyl-8-((2R,3S)-3-methoxy-2-methylazetidin-1-yl)-2,7-naphthyridin-3-yl)amino)pyrimidin-2-yl)-3-methylpiperidin-4-ol]	< 15	< 10
CC(C)c1cnc(N2CC[C@H]2C)c2cnc(Nc3ccnc(N4CC[C@@H](OCCN(C)C)[C@@H](F)C4)n3)cc12 [Example 203, N-(2-((3S,4R)-4-(2-(dimethylamino)ethoxy)-3-fluoropiperidin-1-yl)pyrimidin-4-yl)-5-isopropyl-8-((R)-2-methylazetidin-1-yl)-2,7-naphthyridin-3-amine]	< 15	30 to 50

Further lines, results first:

IC50 (EGFR (L858R T790M C797S)) [nM]	IC50 [1] [nM]	Structure (SMILES)
< 15	10 to 20	CC(C)c1cnc(N2C[C@H](O)[C@H]2C)c2cnc(Nc3ccnc(N4C[C@@H](F)[C@@H](O)[C@@](C)(F)C4)n3)cc12 (single isomer, unassigned) [Example 133, (3S,4R,5R)-3,5-difluoro-1-(4-((8-((2R,3S)-3-hydroxy-2-methylazetidin-1-yl)-5-isopropyl-2,7-naphthyridin-3-yl)amino)pyrimidin-2-yl)-3-methylpiperidin-4-ol or (3R,4S,5S)-3,5-difluoro-1-(4-((8-((2R,3S)-3-hydroxy-2-methylazetidin-1-yl)-5-isopropyl-2,7-naphthyridin-3-yl)amino)pyrimidin-2-yl)-3-methylpiperidin-4-ol]
< 15	10 to 20	CC(C)c1cnc(N2CC[C@@H]2C)c2cnc(Nc3ccnc(N4CC[C@H](O)[C@H](F)C4)n3)cc12 (single isomer, unassigned) [Example 160, (3R,4S)-3-fluoro-1-(4-((5-isopropyl-8-((S)-2-methylazetidin-1-yl)-2,7-naphthyridin-3-yl)amino)pyrimidin-2-yl)piperidin-4-ol or (3R,4S)-3-fluoro-1-(4-((5-isopropyl-8-((R)-2-methylazetidin-1-yl)-2,7-naphthyridin-3-yl)amino)pyrimidin-2-yl)piperidin-4-ol]
< 15	< 10	[2H]C([2H])([2H])O[C@H]1CCN(c2nccc(Nc3cc4c(C(C)C)cnc(N5C[C@H](OCCO)[C@H]5C)c4cn3)n2)C[C@H]1F [Example 137, 2-(((2R,3S)-1-(6-((2-((3R,4S)-3-fluoro-4-(methoxy-d3)piperidin-1-yl)pyrimidin-4-yl)amino)-4-isopropyl-2,7-naphthyridin-1-yl)-2-methylazetidin-3-yl)oxy)ethan-1-ol]
< 15	> 50	CC(C)c1cnc(N2C[C@@H](F)[C@@H]2C)c2cnc(Nc3ccnc(N4CC[C@@H](O)[C@@](C)(F)C4)n3)cc12 (single isomer, unassigned) [Example 34, (3S,4R)-3-fluoro-1-(4-((8-((2S,3R)-3-fluoro-2-methylazetidin-1-yl)-5-isopropyl-2,7-naphthyridin-3-yl)amino)pyrimidin-2-yl)-3-methylpiperidin-4-ol or (3S,4R)-3-fluoro-1-(4-((8-((2R,3S)-3-fluoro-2-methylazetidin-1-yl)-5-isopropyl-2,7-naphthyridin-3-yl)amino)pyrimidin-2-yl)-3-methylpiperidin-4-ol]
< 15	30 to 50	CC(C)c1cnc(N2CC(O)C2)c2cnc(Nc3ccnc(N4CC[C@@H](O)[C@@](C)(F)C4)n3)cc12 [Example 62, (3S,4R)-3-fluoro-1-(4-((8-(3-hydroxyazetidin-1-yl)-5-isopropyl-2,7-naphthyridin-3-yl)amino)pyrimidin-2-yl)-3-methylpiperidin-4-ol]
< 15	30 to 50	CO[C@@H]1CCN(c2nccc(Nc3cc4c(C(C)C)cnc(N5CC6(CCS6(=O)=O)C5)c4cn3)n2)C[C@@H]1O (single isomer, unassigned) [Example 124, 6-(6-((2-((3S,4R)-3-hydroxy-4-methoxypiperidin-1-yl)pyrimidin-4-yl)amino)-4-isopropyl-2,7-naphthyridin-1-yl)-1-thia-6-azaspiro[3.3]heptane 1,1-dioxide or 6-(6-((2-((3R,4S)-3-hydroxy-4-methoxypiperidin-1-yl)pyrimidin-4-yl)amino)-4-isopropyl-2,7-naphthyridin-1-yl)-1-thia-6-azaspiro[3.3]heptane 1,1-dioxide]
< 15	20 to 30	CC(C)c1cnc(N2CC(N=S(C)(C)=O)C2)c2cnc(Nc3ccnc(N4CC[C@@H](O)[C@@](C)(F)C4)n3)cc12 [Example 94, ((1-(6-((2-((3S,4R)-3-fluoro-4-hydroxy-3-methylpiperidin-1-yl)pyrimidin-4-yl)amino)-4-isopropyl-2,7-naphthyridin-1-yl)azetidin-3-yl)imino)dimethyl-l6-sulfanone]
